“And” between values parts separate entries of the source, which are not always exact repeats. Identical values can stand only once. Like-named read-outs stand apart in the source and are kept apart here.
Assays:
[1] = target: T1, G95A mutant ALS (Oryza sativa subsp. japonica, UniProt Q6K2E8, G95A); assay: Inhibition of expressed GST fusion G95A mutant ALS activity by herbicides; format: biochemical, rice
T1 construct: made in house; host or cells: Escherichia coli (pGEX-2T)
Protocol: (§1) The Escherichia coli transformed with pGEX-2T having a G95A mutant ALS gene prepared in Example 6 and the same transformed with pGEX-2T (see WO02/44385A1) having a wild-type ALS gene were each shake-cultured (preculture) in 2 ml of LB liquid medium containing ampicillin at 27° C. They were each cultured in 250 ml of LB liquid medium containing ampicillin using 1 ml of the preculture solution. After overnight culture, 1 mM IPTG was added and they were further cultured for 3 to 4 hours. Thus, the expression of the GST fusion protein was induced. In addition, microbial bodies were washed with an ALS extraction buffer (potassium phosphate buffer (pH 7.5) containing 30% glycerol and 0.5 mM MgCl2) and then stored at −80° C.
(§2) Preparation and purification of ALS from Escherichia coli were performed by the following method. First, a pellet of the Escherichia coli stored at −80° C. was suspended in an ALS extraction buffer. (2.5 ml of the ALS extraction buffer was added to the pellet obtained from 50 ml of the culture solution.) The suspension was subjected to ultrasonication (Heat Systems-Ultrasonics, Sonicator W-225R, micro chip, output control 8, intervals of approximately 1 second, and twice every 40 seconds), and then centrifuged at 15000×g and 4° C. for 20 minutes, thereby obtaining the supernatant as a crude enzyme solution. Therefore, a crude enzyme solution of the GST fusion G95A mutant ALS protein and a crude enzyme solution of the GST fusion wild-type ALS protein were prepared.
(§3) A reaction solution to be used for the reaction for activity determination was prepared by mixing GST fusion ALS to be subjected to activity determination with a solution comprising 20 mM sodium pyruvate, 0.5 mM thiamine pyrophosphate, 0.5 mM MgCl2, 10 μM flavin adenine dinucleotide, 10 mM valine (added for the inhibition of activity of ALS derived from Escherichia coli), and 20 mM potassium phosphate buffer (pH 7.5). 0.5 ml of the reaction solution was used. The reaction was performed at 37° C. for 30 minutes after addition of GST fusion ALS to be subjected to activity determination. The reaction was stopped by the addition of 0.05 ml of 6 N sulfuric acid. After the completion of the reaction, the reaction solution was subjected to incubation at 37° C. for 60 minutes, so that acetolactic acid contained in the reaction solution was converted into acetoin. Subsequently, to quantify acetoin contained in the reaction solution, 0.05 ml of 0.5% (w/v) creatine and 0.05 ml of 5% (w/v) α-naphthol dissolved in 2.5 N sodium hydroxide were added, followed by 10 minutes of incubation at 37° C. Acetoin was then quantified by color comparison of the absorbance at 525 nm of the reaction solution, thereby evaluating ALS activity. The value at reaction time 0 (hours) was used as a control value. When the herbicide inhibition activity was examined, aqueous solutions of bispyribac-sodium and pyrithiobac-sodium were each prepared at a 100-fold concentration and then added to the reaction solution. In the case of pyriminobac, chlorsulfuron, bensulfuron-methyl, imazaquin, and imazapyr having low water solubility, an acetone solution was prepared for each thereof at a 100-fold concentrations and then added to the reaction solution.
(§4) The inhibition activity of various ALS inhibitors against the thus expressed G95A mutant ALS was examined.

[2] = test system: G95A mutant ALS; assay: as above; format: biochemical, rice; details: 50% inhibitory concentration against G95A mutant ALS to that against wild-type ALS
Protocol: as §1, §2, §3, §4

[3] = target: T2, wild-type ALS (GST fusion wild-type ALS) (Oryza sativa subsp. japonica, UniProt Q6K2E8); assay: Inhibition of expressed GST fusion wild-type ALS activity by herbicides; format: biochemical, rice
T2 construct: made in house; host or cells: Escherichia coli (pGEX-2T)
T2 sequence (Q6K2E8 44-644): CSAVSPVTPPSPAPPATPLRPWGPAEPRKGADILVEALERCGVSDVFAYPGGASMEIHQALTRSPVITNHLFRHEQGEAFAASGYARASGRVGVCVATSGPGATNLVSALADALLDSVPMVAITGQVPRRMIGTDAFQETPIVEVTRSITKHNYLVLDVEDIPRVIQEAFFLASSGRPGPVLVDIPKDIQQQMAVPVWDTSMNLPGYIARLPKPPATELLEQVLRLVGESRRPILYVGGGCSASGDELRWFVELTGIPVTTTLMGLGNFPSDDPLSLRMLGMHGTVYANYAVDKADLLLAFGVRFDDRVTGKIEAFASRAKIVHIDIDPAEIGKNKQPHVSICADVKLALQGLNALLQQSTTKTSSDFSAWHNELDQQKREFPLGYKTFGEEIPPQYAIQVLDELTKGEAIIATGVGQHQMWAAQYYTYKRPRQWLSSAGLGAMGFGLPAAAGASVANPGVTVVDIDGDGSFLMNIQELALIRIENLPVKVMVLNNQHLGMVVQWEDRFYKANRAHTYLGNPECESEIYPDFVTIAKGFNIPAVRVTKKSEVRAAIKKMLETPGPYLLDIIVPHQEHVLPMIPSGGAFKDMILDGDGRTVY
Protocol: as §1, §2, §3
The 50% inhibitory concentration of each herbicide against G95A mutant ALS was compared with the 50% inhibitory concentration of the herbicide against wild-type ALS (GST fusion wild-type ALS), so that the herbicide resistance ratio (RS ratio) of the 50% inhibitory concentration against G95A mutant ALS to that against wild-type ALS was calculated. The RS ratios in the cases of bispyribac-sodium, pyrithiobac-sodium, and pyriminobac were 16,000:1 or more, 9, 100:1 or more, and 13,000:1 or more, respectively. In contrast, the RS ratios in the cases of chlorsulfuron, bensulfuron-methyl, imazaquin, and imazapyr were 0.19:1, 40:1, 0.82:1, and 4.9:1, respectively. […]

[4] = test system: clone plants of the G95A-1 line and the G95A-2 line; assay: Bispyribac-sodium resistance test on rooting medium, G95A lines; format: in vivo, rice; details: G95A-1 line at 1, 5, 10, 20 μM, G95A-2 line at 5 μM; observed 1 and 2 weeks after transplantation
Protocol: (§5) The two lines of plants selected by the above method were designated the G95A-1 line and the G95A-2 line. Since they were albino plants, they were cultured on MS medium and then multiplied by division. To test the degree of resistance to bispyribac-sodium, clone plants divided from the G95A-1 line were transplanted on rooting media (Table 3) containing 0 μM, 1 μM, 5 μM, 10 μM, or 20 μM bispyribac-sodium (FIG. 3A: on the left in each Petri dish, observed as white because they were albino). Clone plants of the G95A-2 line (the number of these clone plants is a few) were tested using 5 μM bispyribac-sodium alone. Plants of wild-type Taichung 65 in 2 weeks after seeding were used as members of a control group (FIG. 3, on the right side in each Petri dish). Plant in 1 week (FIG. 3B) after transplantation and plant in 2 weeks (FIG. 3C) after transplantation were observed.

[5] = test system: plants of wild-type Taichung 65; assay: Bispyribac-sodium resistance test on rooting medium, wild-type control; format: in vivo, rice; details: wild-type Taichung 65, 2 weeks after seeding; observed 1 and 2 weeks after transplantation
Protocol: as §5

[6] = 50% inhibitory concentration (μM) G95A mutant, G95A mutant ALS (Table 5)
[7] = read-out: inhibition % at 100 μM, Average, G95A mutant ALS, average of determinations
[8] = read-out: inhibition % at 100 μM, G95A mutant ALS, single determinations (First to Third)
[9] = read-out: inhibition activity at 100 μM, G95A mutant ALS
[10] = 50% inhibitory concentration, Average, G95A mutant ALS, average of determinations (Table 4)
[11] = 50% inhibitory concentration, G95A mutant ALS, single determinations (First to Sixth)

T1 sequence (Q6K2E8 44-644 G95A): as the sequence (Q6K2E8 44-644) above, with G52A counted along it

Compound | IC50 [1, 6] | inhibition % at 100 μM ([1]; G95A mutant ALS, single determinations (First to Third), listed as PM) | inhibition at 100 µM [1, 7] | inhibition at 100 µM [1, 8] | inhibition at 100 µM [1, 9] | Resistance ratio (RS ratio) [2] | Resistance ratio (RS ratio) ([2]; listed as pyriminobac) | IC50 [3] | IC50 [1, 10] | IC50 [1, 11] | inhibition activity against G95A mutant ALS (in words) ([1]; G95A mutant ALS) | inhibition % at 100 μM ([1]; G95A mutant ALS, single determinations (First to Third), listed as PS) | inhibition % at 100 μM ([1]; G95A mutant ALS, single determinations (First to Third), listed as BS) | Resistance ratio (RS ratio) ([2]; listed as bispyribac-sodium) | resistance / rooting on bispyribac-sodium-containing rooting medium [4] | effect on plants on bispyribac-sodium-containing rooting medium [5]
CON=C(C)c1cccc(Oc2nc(OC)cc(OC)n2)c1C(=O)O (mixture of isomers) [Pyriminobac, pyriminobac] | > 100 µM | 23.3% and 29.2% | 25.1% | 22.9% | ≤ 50% | >13000 | ≥ 13,000 | 0.008 µM | – | – | – | – | – | – | – | –
COC(=O)c1ccccc1CS(=O)(=O)NC(=O)Nc1nc(OC)cc(OC)n1 [Bensulfuron-methyl, bensulfuron-methyl] | 0.28 µM | – | – | – | – | 40 | – | 0.007 µM | 0.278 µM | 0.268 µM and 0.294 µM and 0.271 µM | exerted inhibition activity | – | – | – | – | –
CC(C)C1(C)N=C(c2ncccc2C(=O)O)NC1=O (stereo not shown) [Imazapyr, imazapyr] | 47 µM | – | – | – | – | 4.9 | – | 9.6 µM | 46.8 µM | 46 µM and 44.6 µM and 49.7 µM | exerted inhibition activity | – | – | – | – | –
COc1cc(OC)nc(Sc2cccc(Cl)c2C(=O)[O-])n1.[Na+] [Pyrithiobac-sodium, pyrithiobac-sodium] | > 100 µM | – | 14.3% | 12.1% | ≤ 50% | >9100 | – | 0.011 µM | – | – | – | 12.8% and 18.1% | – | – | – | –
COc1nc(C)nc(NC(=O)NS(=O)(=O)c2ccccc2Cl)n1 [Chlorsulfuron, chlorsulfuron] | 0.0025 µM | – | – | – | – | 0.19 | – | 0.013 µM | 0.0025 µM | 0.0019 µM and 0.0023 µM and 0.003 µM and 0.0027 µM and 0.0028 µM and 0.0021 µM | strong | – | – | – | – | –
COc1cc(OC)nc(Oc2cccc(Oc3nc(OC)cc(OC)n3)c2C(=O)[O-])n1.[Na+] [Bispyribac-sodium, bispyribac-sodium] | > 100 µM | – | 17.7% | 17.9% | ≤ 50% | >16000 | – | 0.0063 µM | – | – | – | – | 16.8% and 18.4% | ≥ 16,000 | exerted resistance, with new rooting observed | all the wild-type plants of the control group withered
CC(C)C1(C)N=C(c2nc3ccccc3cc2C(=O)O)NC1=O (stereo not shown) [Imazaquin, imazaquin] | 1.8 µM | – | – | – | – | 0.82 | – | 2.2 µM | 1.8 µM | 1.65 µM and 1.89 µM and 1.85 µM | exerted inhibition activity | – | – | – | – | –
